Assays:
[1] = tested on: rats of the Wistar Imamichi strain; assay: Reduction of blood and liver cholesterol levels in Triton WR-1339 treated rats; format: in vivo; conditions: rat
Description: The animals used were rats of the Wistar Imamichi strain, each having a body weight of about 300 g. The tests were conducted on groups of rats, each group consisting of 5 animals. Each animal was intravenously injected with 400 mg/kg of Triton WR-1339 (a trade name for a material known to increase the blood cholesterol level) whilst simultaneously administering 10 mg/kg of Monacolin K either orally or intraperitoneally. 20 hours after oral administration or 14 hours after intraperitoneal administration, the rats were sacrificed by bleeding and the blood and livers were collected and their cholesterol levels were determined by conventional means.

Acute oral toxicity = conditions: in vivo, mouse
Excerpt: Not only does Monacolin K have a valuable inhibitory effect on the biosynthesis of cholesterol, but it also has a very low toxicity, making its use for the treatment of hypercholesteraemia potentially very attractive. Specifically the acute oral toxicity (LD50) of Monacolin K in the mouse is 1 g/kg body weight or more.

rabbits = assay: Reduction of blood cholesterol levels in rabbits; format: in vivo; conditions: rabbit, 1 mg/kg oral twice each day
Description: In this test, the ability of Monacolin K to reduce cholesterol levels in rabbit blood is measured. The animals employed should each weigh from 2.5 to 3.0 kg. At the beginning of the tests, blood is collected from a vein in an ear of each rabbit and the cholesterol level in the blood serum is measured by a conventional method. A predetermined quantity of Monacolin K or of a Monacolin K-containing culture broth is then administered orally continuously for from 1 to 5 days and the cholesterol level in the blood serum is measured at stages after the administration. The potency of the Monacolin K or Monacolin K-containing culture medium can be determined quantitatively from the blood cholesterol levels obtained prior to and after administration of the Monacolin K.
The test animals used were rabbits having a body weight of from 2.7. kg to 2.9 kg. Each rabbit was given orally 1 mg/kg of Monacolin K twice each day (morning and evening) continuously for 5 days. Prior to administration and at 3 and 5 days after administration, blood was collected from a vein in the ear and the cholesterol levels in the blood serum were determined.

HMG-CoA reductase = target: T1, HMG-CoA reductase (Rattus norvegicus, UniProt P51639); assay: biochemical
T1 sequence (P51639 1-887): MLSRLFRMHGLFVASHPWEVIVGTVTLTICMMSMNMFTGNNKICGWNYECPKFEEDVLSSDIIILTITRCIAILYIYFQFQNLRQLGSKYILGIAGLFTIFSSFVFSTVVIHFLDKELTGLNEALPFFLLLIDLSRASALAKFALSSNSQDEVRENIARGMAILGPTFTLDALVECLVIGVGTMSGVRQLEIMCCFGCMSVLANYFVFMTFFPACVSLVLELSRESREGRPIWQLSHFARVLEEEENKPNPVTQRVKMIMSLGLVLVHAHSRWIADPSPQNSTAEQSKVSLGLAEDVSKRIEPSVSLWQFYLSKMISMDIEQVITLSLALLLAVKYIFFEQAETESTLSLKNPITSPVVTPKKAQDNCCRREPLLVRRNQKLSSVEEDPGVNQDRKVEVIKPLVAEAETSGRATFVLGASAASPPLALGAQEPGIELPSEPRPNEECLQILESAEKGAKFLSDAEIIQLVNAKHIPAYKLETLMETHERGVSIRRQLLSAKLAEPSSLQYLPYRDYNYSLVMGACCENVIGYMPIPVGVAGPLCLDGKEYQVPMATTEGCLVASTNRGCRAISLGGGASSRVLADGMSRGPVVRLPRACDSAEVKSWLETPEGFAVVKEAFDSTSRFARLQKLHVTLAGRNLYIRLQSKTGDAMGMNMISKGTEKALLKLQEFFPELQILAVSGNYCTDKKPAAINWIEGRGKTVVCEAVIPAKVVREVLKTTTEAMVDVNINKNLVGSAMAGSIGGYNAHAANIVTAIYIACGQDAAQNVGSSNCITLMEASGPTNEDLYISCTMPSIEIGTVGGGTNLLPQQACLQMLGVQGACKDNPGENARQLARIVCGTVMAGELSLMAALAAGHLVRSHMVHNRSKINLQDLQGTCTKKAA
Excerpt: The value is obtained by the product of the concentrations of enzyme and of inhibitor divided by the concentration of the enzyme-inhibitor complex.

[2] = target: cholesterol biosynthesis (crude enzymes from rat liver); assay: In vitro test with rat liver: inhibition of cholesterol biosynthesis from radioactive acetic acid; format: biochemical; conditions: acetic acid reacted with enzyme from rat liver
[3] = format: physicochemical
Excerpt: Insoluble in hexane and petroleum ether.
The compound is neutral and is insoluble in neutral or acidic aqueous media. It is, however, converted to an acidic substance by treatment with alkali and this acidic substance is soluble in water. The acidic substance can be extracted with ethyl acetate or chloroform at acid pH values and will revert to Monacolin K on evaporation of the solvent.

[4] = 10 mg/kg oral, 20 hours after administration

Compound | reduction of blood cholesterol level vs control group (Triton WR-1339 alone) ([1]; 10 mg/kg intraperitoneal, 14 hours after administration) | reduction of blood cholesterol level vs control group (Triton WR-1339 alone) [1, 4] | reduction of liver cholesterol level [1, 4] | LD50 (Acute oral toxicity) | blood serum cholesterol level lower than prior to administration (rabbits; at 3 days) | blood serum cholesterol level lower than prior to administration (rabbits; at 5 days) | Ki (HMG-CoA reductase; competitive with respect to HMG-CoA, read-out: Ki value (inhibition constant)) | manner of inhibition of HMG-CoA reductase (HMG-CoA reductase; with respect to HMG-CoA) | concentration giving 50% inhibition of cholesterol biosynthesis [2] | Solubility [3]
CCC(C)C(=O)OC1CC(C)C=C2C=CC(C)C(CCC3CC(O)CC(=O)O3)C21 (stereo not shown) [Monacolin K] | 23.9% | 22.4% | 16.7% | ≥ 1000 mg/kg | 15% | 29% | 0.53 nM | competitive | 0.002 µg/mL | –
CCC(C)C(=O)OC1CC(C)C=C2C=CC(C)C(CCC(O)CC(O)CC(=O)O)C21 (stereo not shown) [acidic substance] | – | – | – | – | – | – | – | – | – | soluble

From US4323648A, “Preparation of Monacolin K” (Sankyo Company Limited, priority 1979, dated 1982)
